# Molecular target: human vasopressin V1a receptor subtype (Homo sapiens, UniProt P37288)
# Assay: Vasopressin binding in CHO cell membranes expressing human vasopressin V1a subtype receptors
# Conditions: 100 nM, [3H]Manning ligand
# Text: Vasopressin Binding in Chinese Hamster Ovary Cell Membranes Expressing Human Vasopressin V1a Subtype Receptors
# Chinese hamster ovary cells (CHO cells) stably transfected with the human vasopressin V1a subtype receptors were either obtained from Biosignal Inc., 1744 rue Williams, Montreal, Quebec, Canada or obtained from M. Thibonnier, Case Western Reserve University School of Medicine, Cleveland, Ohio. A. Passaging and Amplification of Cells: CHO cells transfected with the human vasopressin V1a subtype receptors obtained from M. Thibonnier (pZeoSV vector) are allowed to grow to confluency (approx. >90%) in T-150 flasks under sterile conditions, in a cell culture medium of F-12 Nutrient Mixture (HAM) with L-glutamine (Gibco Cat. # 11765-054) containing 15 mM HEPES (Gibco Cat. 15630-080), 1% antibiotic/antimycotic (add 5 mL 100×, Gibco Cat. 15240-062 per 500 mL F-12), 250 μg/mL Zeocin (add 1.25 mL of 100 mg/mL Invitrogen R-250-01 per 500 mL F-12) and 10% Fetal Bovine Serum (Qualified, heat inactivated, Gibco Cat. # 16140-063). The medium is removed by aspiration and the cells are washed with 10 mL of Hank's Balanced Salt solution (Gibco Cat. # 14175-095). The salt solution is removed by aspiration and the cells are trypsinized with 5 mL of trypsin-EDTA (0.05% trypsin, 0.53 mM EDTA-4Na, Gibco Cat. # 25300-070) for 1 min. The trypsin is removed by aspiration and the cells dislodged by tapping. Cell Culture medium (eg, 30 mL for 1:30 split) is immediately added and mixed well to inactivate trypsin. 1 mL of detached cells is added to new culture flasks containing fresh cell culture medium (eg, into 25 mL per T-150 flask), and mixed gently. The cells are incubated at 37° C. in 5% CO2. The medium is changed at 3 to 4 days interval (or as appropriate). The cells grow to confluency (approx. >75%–95%) within 7–8 days. All steps are done under sterile conditions. B. Membrane Preparation: The cells are washed twice gently with Hank's Balanced Salt solution (e.g,. use 10 mL per T-150 flask). The excess is removed and the cells are bathed for 15–30 min. in an enzyme-free Cell Dissociation Buffer (e.g. use 8 mL Hank's Based, Gibco Cat. # 13150-016 per T-150 flask) until the cells are loosened. The contents are transferred to centrifuge tubes (50 mL) kept in an ice bath. All subsequent steps are done at 4° C. The tubes are centrifuged at 300×g for 15 min (1380 rpm on SORVAL, Model RT6000D, using rotor for the 50 mL tubes). The supernatant is discarded and the cells suspended in homogeneizing buffer(10 mM Tris-HCl containing 0.25 M sucrose and 1 mM EDTA, pH 7.4) ensuring that the volume of the buffer is about ten times the volume of the cell pellet. The cells are pooled into a centrifuge tube (50 mL) and homogenized with Polytron at setting 6 for 10 sec. The homogenate is transferred into a Potter-Elvjehm homogenizer and homogenized with 3 strokes. The homogenate is centrifuged at 1500× g for 10 min at 4° C. (3100 rpm using SORVAL, model RT6000D, using the rotor for 50 mL tubes). The pellet is discarded. The supernatant is centrifuged at 100,000×g for 60 min. at 4° C. (Beckman L8-80M ultracentrifuge; spin at 37,500 rpm with rotor type 70 Ti for 50 mL tubes; 38,000 rpm with type 80Ti for 15 mL tubes; or 35,800 rpm with rotor type 45Ti). The supernantant is discarded and the pellet suspended in 3 to 4 mL of Tris buffer (50 mM TRIS-HCl, pH 7.4). The protein content is estimated by the Bradford or Lowry method. The volume of the membrane suspension is adjusted with the membrane buffer (50 mM Tris-HCl containing 0.1% BSA and 0.1 mM PMSF) to give 3.0 mg/mL (or as appropriate) of protein. The membranes are aliquoted and stored at −70° C. C. […]
# human vasopressin V1a receptor subtype, sequence (P37288 whole entry): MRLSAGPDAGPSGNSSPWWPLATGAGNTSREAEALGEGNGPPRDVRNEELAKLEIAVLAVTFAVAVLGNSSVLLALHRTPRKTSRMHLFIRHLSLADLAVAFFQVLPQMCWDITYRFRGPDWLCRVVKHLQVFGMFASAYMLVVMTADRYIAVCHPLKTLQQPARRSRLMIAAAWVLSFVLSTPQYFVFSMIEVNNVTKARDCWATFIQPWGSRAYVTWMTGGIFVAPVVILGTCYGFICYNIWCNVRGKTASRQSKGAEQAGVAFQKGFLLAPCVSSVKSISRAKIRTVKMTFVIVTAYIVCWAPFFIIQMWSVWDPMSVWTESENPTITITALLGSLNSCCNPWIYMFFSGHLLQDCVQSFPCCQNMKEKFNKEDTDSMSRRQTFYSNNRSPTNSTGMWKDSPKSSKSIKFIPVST
V1a % inhibition at 100 nM [%],inhibition at 0.1 µM [%],Compound
31,,"Cc1ccccc1C(=O)NNC(=O)c1ccc2n1Cc1ccccc1N(C(=O)c1ccc(C3CCCCC3)cc1)C2 [Example 12, 10-(4-Cyclohexyl-benzoyl)-N′-(2-methylbenzoyl)-10,11-dihydro-5H-pyrrolo[2,1-c][1,4]benzodiazepine-3-carbonyl-hydrazide]"
35,,"O=C(NNC(=O)C1CC1)c1ccc2n1Cc1ccccc1N(C(=O)c1ccc(C3CCCCC3)cc1)C2 [Example 13, 10-(4-Cyclohexyl-benzoyl)-N′-(cyclopropylcarbonyl)-10,11-dihydro-5H-pyrrolo[2,1-c][1,4]benzodiazepine-3-carbonyl-hydrazide]"
23,,"Cc1cccc(C(=O)NNC(=O)c2ccc3n2Cc2ccccc2N(C(=O)c2ccc(C4CCCCC4)cc2)C3)c1 [Example 14, 10-(4-Cyclohexyl-benzoyl)-N′-(3-methyl-benzoyl)-10,11-dihydro-5H-pyrrolo[2,1-c][1,4]benzodiazepine-3-carbonyl-hydrazide]"
,-4,"O=C(NNC(=O)c1ccc2n1Cc1ccccc1N(C(=O)c1ccc(C3CCCCC3)cc1)C2)Nc1ccccc1 [Example 15, 2-{[10-(4-Cyclohexyl-benzoyl)-10,11-dihydro-5H-pyrrolo[2,1-c][1,4]benzodiazepin-3-yl]carbonyl}-N-phenyl-1-hydrazinecarboxamide]"
,21,"CN(N)C(=O)c1ccc2n1Cc1ccccc1N(C(=O)c1ccc(C3CCCCC3)cc1)C2 [Example 21, 10-(4-Cyclohexyl-benzoyl)-N-methyl-10,11-dihydro-5H-pyrrolo[2,1-c][1,4]benzodiazepine-3-carboxylic acid hydrazide]"
13,,"O=C(O)c1ccc2n1Cc1ccccc1N(C(=O)c1ccc(C3CCCCC3)cc1)C2 [Example 22, 10-(4-Cyclohexyl-benzoyl)-10,11-dihydro-5H-pyrrolo[2,1 c][1,4]benzodiazepine-3-carboxylic acid]"
,2,"COc1ccc(NC(=O)c2ccc3n2Cc2ccccc2N(C(=O)c2ccc(C4CCCCC4)cc2)C3)cc1 [Example 29, 10-(4-Cyclohexyl-benzoyl)-10,11-dihydro-5H-pyrrolo[2,1-c][1,4]benzodiazepine-3-carboxylic acid (4-methoxy-phenyl)-amide]"
69,,"O=C(C(=O)N1CCC(N2CCCCC2)CC1)c1ccc2n1Cc1ccccc1N(C(=O)c1ccc(C3CCCCC3)cc1)C2 [Example 31, 1-[1.4′]Bipiperidinyl-1′-yl-2-[10-(4-cyclohexyl-benzoyl)-10,11-dihydro-5H-pyrrolo[2,1-c][1,4]benzodiazepin-3-yl]-ethane-1,2-dione]"
56,,"CN1CCN(C(=O)C(=O)c2ccc3n2Cc2ccccc2N(C(=O)c2ccc(C4CCCCC4)cc2)C3)CC1 [Example 32, 1-[10-(4-Cyclohexyl-benzoyl)-10,11-dihydro-5H-pyrrolo[2,1-c][1,4]benzodiazepin-3-yl]-2-(4-methyl-1-piperazin-1-yl)-1,2-ethane-1,2-dione]"
,27,"CN(C)CCCNC(=O)c1ccc2n1Cc1ccccc1N(C(=O)c1ccc(C3CCCCC3)cc1)C2 [Example 33, 10-(4-Cyclohexyl-benzoyl)-N-[3-(dimethylamino)propyl]-10,11-dihydro-5H-pyrrolo[2,1-c][1,4]benzodiazepine-3-carboxamide]"
,3,"CN(C)CCN(C)C(=O)c1ccc2n1Cc1ccccc1N(C(=O)c1ccc(C3CCCCC3)cc1)C2 [Example 34, 10-(4-Cyclohexyl-benzoyl)-N-[2-(dimethylamino)-ethyl]-N-methyl-10,11-dihydro-5H-pyrrolo[2,1-c][1,4]benzodiazepine-3-carboxamide]"
,12,"CN(C)CCCN(C)C(=O)c1ccc2n1Cc1ccccc1N(C(=O)c1ccc(C3CCCCC3)cc1)C2 [Example 35, 10-(4-Cyclohexyl-benzoyl)-N-[3-(dimethylamino)propyl]N-methyl-10,11-dihydro-5H-pyrrolo[2,1-c][1,4]benzodiazepine-3-carboxamide]"
,3,"O=C(NCCCn1ccnc1)c1ccc2n1Cc1ccccc1N(C(=O)c1ccc(C3CCCCC3)cc1)C2 [Example 36, 10-(4-Cyclohexyl-benzoyl)-N-[3-(1H-imidazol-1-yl)propyl]-10,11-dihydro-5H-pyrrolo[2,1-c][1,4]benzodiazepine-3-carboxamide]"
,23,"O=C(NCCN1CCCCC1)c1ccc2n1Cc1ccccc1N(C(=O)c1ccc(C3CCCCC3)cc1)C2 [Example 37, 10-(4-Cyclohexyl-benzoyl)-N-[2-(1-piperidinyl)ethyl]-10,11-dihydro-5H-pyrrolo[2,1-c][1,4]benzodiazepine-3-carboxamide]"
,31,"CN1CCCC1CCNC(=O)c1ccc2n1Cc1ccccc1N(C(=O)c1ccc(C3CCCCC3)cc1)C2 (centres unmarked) [Example 38, 10-(4-Cyclohexyl-benzoyl)-N-[2-(1-methyl-2-pyrrolidinyl)ethyl]-10,11-dihydro-5H-pyrrolo[2,1-c][1,4]benzodiazepine-3-carboxamide]"
,43,"CN1CCC(N(C)C(=O)c2ccc3n2Cc2ccccc2N(C(=O)c2ccc(C4CCCCC4)cc2)C3)CC1 [Example 39, 10-(4-Cyclohexyl-benzoyl)-N-methyl-N-(1-methyl-4-piperidinyl)-10,11-dihydro-5H-pyrrolo[2,1-c][1,4]benzodiazepine-3-carboxamide]"

# Same assay, conditions: [3H]Manning ligand, value in parentheses
row,IC50 [nM],Compound
1,258,"CC(=O)c1ccc2n1Cc1ccccc1N(C(=O)c1ccc(C3CCCCC3)cc1)C2 [Example 6, 1-[10-(4-Cyclohexyl-benzoyl)-10,11-dihydro-5H-pyrrolo[2,1-c][1,4]benzodiazepin-3-yl]-ethanone]"
2,543,"NNC(=O)c1ccc2n1Cc1ccccc1N(C(=O)c1ccc(C3CCCCC3)cc1)C2 [Example 8, 10-(4-Cyclohexy-benzoyl)-10,11-dihydro-5H-pyrrolo[2,1-c][1,4]benzodiazepine-3-carboxylic acid hydrazide]"
3,367,"CC(=O)NNC(=O)c1ccc2n1Cc1ccccc1N(C(=O)c1ccc(C3CCCCC3)cc1)C2 [Example 11, N′-Acetyl-10-(4-cyclohexyl-benzoyl)-10,11-dihydro-5H-pyrrolo[2,1-c][1,4]benzodiazepine-3-carbonyl-hydrazide]"
4,635,O=C(c1ccc2n1Cc1ccccc1N(C(=O)c1ccc(C3CCCCC3)cc1)C2)N1CCN(c2ncccn2)CC1 [Example 23]
5,90.4,"O=C(c1ccc2n1Cc1ccccc1N(C(=O)c1ccc(C3CCCCC3)cc1)C2)N1CCC(N2CCCC2)CC1 [Example 25, [10-(4-Cyclohexyl-benzoyl)-10,11-dihydro-5H-pyrrolo[2,1-c][1,4]benzodiazepin-3-yl][4-(1-pyrrolidinyl)-1-piperidinyl]methanone]"
6,200,"O=C(c1ccc2n1Cc1ccccc1N(C(=O)c1ccc(C3CCCCC3)cc1)C2)N1CCC(N2CCCCC2)CC1 [Example 26, [1,4′]Bipiperidinyl-1′-yl-[10-(4-cyclohexyl-benzoyl)-10,11-dihydro-5H-pyrrolo[2,1-c][1,4]benzodiazepin-3-yl]-methanone]"
7,> 1000,"O=C(c1ccc2n1Cc1ccccc1N(C(=O)c1ccc(C3CCCCC3)cc1)C2)N1CCN(c2ccccn2)CC1 [Example 28, [10-(4-Cyclohexyl-benzoyl)-10,11-dihydro-5H-pyrrolo[2,1-c][1,4]benzodiazepine 3-yl][4-(2-pyridinyl)-1-piperazinyl]-methanone]"

# Reference: patent US7202239B2, “Cyclohexylphenyl carboxamides tocolytic oxytocin receptor antagonists” (Wyeth, priority 2001, dated 2007)
